From BindingDB's records for doi:10.1111/j.1747-0285.2011.01215.x (Yeditepe University, 2011)

Target: Sigma non-opioid intracellular receptor 1 (Cavia porcellus, UniProt Q60492)
Assay: Sigma 1 Assay
Conditions: pH 7.4; 37 °C
Method: The test was performed with the radioligand [3H]-(+)-pentazocine (42.5 Ci/mmol) from Perkin Elmer.

Sigma non-opioid intracellular receptor 1, sequence (Q60492 whole entry): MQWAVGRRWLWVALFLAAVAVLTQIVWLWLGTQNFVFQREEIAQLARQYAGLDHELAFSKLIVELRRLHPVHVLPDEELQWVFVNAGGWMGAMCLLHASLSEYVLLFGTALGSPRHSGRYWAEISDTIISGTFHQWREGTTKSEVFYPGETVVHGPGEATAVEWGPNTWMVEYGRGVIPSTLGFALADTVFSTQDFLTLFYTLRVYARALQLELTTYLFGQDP

Row | Structure (SMILES) | Ki [nM]
1 | Fc1ccc(N2CCN(Cc3cn(CN4CCN(c5ccc(F)cc5)CC4)c4ccccc34)CC2)cc1 [1,3-di-{[4-(4-fluorophenyl)piperazin1-yl]methyl}-1 H-indole, 2a] | 2690
2 | Fc1ccc(N2CCN(CCCn3ccc4ccccc43)CC2)cc1 [1-{3-[4-(substitutedphenyl)piperazin1-yl]propyl}-1 H-indole, 4a] | 456
3 | Fc1ccccc1N1CCN(CCCn2ccc3ccccc32)CC1 [1-{3-[4-(substitutedphenyl)piperazin1-yl]propyl}-1 H-indole, 4b] | 264
4 | c1ccc(N2CCN(CCCn3ccc4ccccc43)CC2)cc1 [1-{3-[4-(substitutedphenyl)piperazin1-yl]propyl}-1 H-indole, 4c] | 1490
5 | Cc1cn(CN2CCN(c3ccc(F)cc3)CC2)c2ccccc12 [1-{[4-(substitutedphenyl/phenylethyl)piperazin1-yl]methyl}-3-methyl-1 H-indole, 3a] | 1000
6 | Cc1cn(CN2CCN(CCc3ccccc3)CC2)c2ccccc12 [1-{[4-(substitutedphenyl/phenylethyl)piperazin1-yl]methyl}-3-methyl-1 H-indole, 3b] | 14.2
7 | Fc1ccc(N2CCN(Cc3c[nH]c4ccccc34)CC2)cc1 [3-[[4-(4-fluorophenyl)piperazin-1-yl]methyl]-1H-indole] | 3640
8 | Fc1ccc(F)c(CN2CCN(Cc3c[nH]c4ccccc34)CC2)c1 [3-{[4-(substitutedphenyl/benzyl)piperazin1-yl]methyl}-1 H-indole, 1b] | 216
9 | Clc1ccc(CN2CCN(Cc3c[nH]c4ccccc34)CC2)cc1Cl [3-{[4-(substitutedphenyl/benzyl)piperazin1-yl]methyl}-1 H-indole, 1c] | 126
